Laboratory results reported in patent US20100178250A1, “Method of Local Delivery of Bioactive and Diagnostic Agents Using Magnetizable Bone Cement” (Philadelphia Health & Education Corporation, priority 2006, published 2010).

How the values were obtained:
Staphlococcus aureus = Staphlococcus aureus bacterial cultures (plate, clear areas); type: cell-based; settings: 150 μL beads or 10 mg tobramycin disc on plate
Experimental: Staphlococcus aureus bacterial cultures were performed in the microbiology department of Hahnemann University Hospital. On each plate 150 μL of control beads, 150 μL, of antibiotic beads and a 10 mg tobramycin disc were placed in order to see any bactericidal activity.

[1] = system: bacterial strains cultured directly from clinically retrieved gentamicin-loaded bone cement; settings: cited from earlier work

Compound | bactericidal activity (clear areas indicating lack of bacterial growth) (Staphlococcus aureus) | gentamicin resistant strains [1]
NC[C@H]1O[C@H](O[C@H]2[C@H](O)[C@@H](O[C@H]3O[C@H](CO)[C@@H](O)[C@H](N)[C@H]3O)[C@H](N)C[C@@H]2N)[C@H](N)C[C@@H]1O [tobramycin disc, tobramycin] | clear areas present | 
gentamicin |  | 19 of 28
